Experimental data: patent US20250382332A1, “NOVEL ALPHA-FACTOR BASED PEPTIDES WITH ANTIFUNGAL ACTIVITY” (INVAIO SCIENCES, INC., priority 2024, published 2025)
Peptide text beside a SMILES is read from it.

System: Botrytis cinerea (B05.10)
Assay: Resazurin antifungal assay of 180 alpha-factor peptide variants towards Botrytis (Example 2)
Type: cell-based
Conditions: % inhibition of fungal growth, Botrytis conidia, resazurin; for Inhibition at 10 μM: peptide 10 μM; for Inhibition at 15 μM: peptide 15 μM; for Inhibition at 20 μM: peptide 20 μM; for Inhibition at 50 μM: peptide 50 μM; for Inhibition at 100 μM: peptide 100 μM
Summary of the method: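 B. cinerea B05.10 conidia (5000/well) were exposed to peptides at 100, 50, 20, 15 and 10 μM final for 24 h at 20° C. Resazurin was then added and fluorescence read at 570/620 nm. Percent growth inhibition was calculated against conidia-only wells, with four technical replicates.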

Row | SMILES | Inhibition at 10 μM [%] | Inhibition at 15 μM [%] | Inhibition at 20 μM [%] | Inhibition at 50 μM [%] | Inhibition at 100 μM [%]
1 | CC[C@H](C)[C@H](NC(=O)[C@H](CCSC)NC(=O)[C@H](Cc1c[nH]cn1)NC(=O)[C@@H](N)CCCCN)C(=O)N[C@@H](CCC(N)=O)C(=O)N[C@@H](CC(C)C)C(=O)N[C@@H](Cc1ccc(O)cc1)C(=O)N[C@@H](Cc1c[nH]c2ccccc12)C(=O)NCC(=O)N[C@@H](CCC(N)=O)C(=O)N1CCC[C@H]1C(=O)N[C@@H](CCSC)C(=O)N[C@@H](Cc1ccc(O)cc1)C(=O)O [compound 54] (H-KHMIQLYWGQPMY-OH; N-terminus and C-terminus assumed) | <90 | <90 | 93.21 | 100 | 100
2 | CSCC[C@H](NC(=O)[C@@H]1CCCN1C(=O)[C@H](CCC(N)=O)NC(=O)CNC(=O)[C@H](CCCNC(=N)N)NC(=O)[C@H](CCCCN)NC(=O)[C@H](CC(C)C)NC(=O)[C@@H](NC(=O)[C@H](CC(C)C)NC(=O)[C@H](CC(=O)O)NC(=O)[C@H](CCCNC(=N)N)NC(=O)[C@@H]1CCCN1)[C@@H](C)O)C(=O)N[C@@H](Cc1ccc(O)cc1)C(=O)O [compound 141] (H-PRDLTLKRGQPMY-OH; N-terminus and C-terminus assumed) | – | – | – | <90 | <90
3 | CC[C@H](C)[C@H](NC(=O)[C@@H](NC(=O)[C@H](CC(C)C)NC(=O)[C@H](Cc1c[nH]c2ccccc12)NC(=O)[C@H](Cc1c[nH]cn1)NC(=O)[C@@H]1CCCN1)[C@@H](C)O)C(=O)N[C@@H](CCCCN)C(=O)N1CCC[C@H]1C(=O)NCC(=O)N[C@@H](CCC(N)=O)C(=O)N1CCC[C@H]1C(=O)N[C@@H](CCSC)C(=O)N[C@@H](Cc1ccc(O)cc1)C(=O)O [compound 30] (H-PHWLTIKPGQPMY-OH; N-terminus and C-terminus assumed) | – | – | – | <90 | <90
4 | CSCC[C@H](NC(=O)[C@@H]1CCCN1C(=O)[C@H](CCC(N)=O)NC(=O)CNC(=O)[C@@H]1CCCN1C(=O)[C@H](CCCCN)NC(=O)[C@H](CC(C)C)NC(=O)[C@H](CCCCN)NC(=O)[C@H](CC(C)C)NC(=O)[C@H](CC(=O)O)NC(=O)CNC(=O)[C@@H](N)Cc1c[nH]c2ccccc12)C(=O)N[C@@H](Cc1ccc(O)cc1)C(=O)O [compound 134] (H-WGDLKLKPGQPMY-OH; N-terminus and C-terminus assumed) | – | – | – | <90 | <90
5 | CC[C@H](C)[C@H](NC(=O)[C@H](CCC(N)=O)NC(=O)[C@H](CC(C)C)NC(=O)[C@H](Cc1c[nH]c2ccccc12)NC(=O)[C@H](Cc1c[nH]cn1)NC(=O)[C@@H](N)CCCCN)C(=O)N[C@@H](CCCCN)C(=O)N[C@@H](Cc1ccc(O)cc1)C(=O)NCC(=O)N[C@@H](CCC(=O)O)C(=O)N1CCC[C@H]1C(=O)N[C@@H](CCSC)C(=O)N[C@@H](Cc1ccc(O)cc1)C(=O)O [compound 7] (H-KHWLQIKYGEPMY-OH; N-terminus and C-terminus assumed) | <90 | – | <90 | 100 | 100
6 | CSCC[C@H](NC(=O)[C@@H]1CCCN1C(=O)[C@H](CCC(N)=O)NC(=O)CNC(=O)[C@@H](NC(=O)[C@H](CCC(N)=O)NC(=O)[C@H](Cc1ccccc1)NC(=O)[C@H](CC(N)=O)NC(=O)CNC(=O)[C@H](Cc1c[nH]c2ccccc12)NC(=O)[C@H](Cc1c[nH]cn1)NC(=O)[C@@H](N)Cc1c[nH]c2ccccc12)[C@@H](C)O)C(=O)N[C@@H](Cc1ccc(O)cc1)C(=O)O [compound 157] (H-WHWGNFQTGQPMY-OH; N-terminus and C-terminus assumed) | – | – | – | <90 | 97.14
7 | CSCC[C@H](NC(=O)CNC(=O)[C@H](CCC(N)=O)NC(=O)CNC(=O)[C@@H]1CCCN1C(=O)[C@H](CCCCN)NC(=O)[C@H](Cc1ccccc1)NC(=O)[C@H](CCC(=O)O)NC(=O)[C@H](CC(C)C)NC(=O)[C@H](CC(=O)O)NC(=O)[C@H](Cc1c[nH]cn1)NC(=O)[C@@H]1CCCN1)C(=O)N[C@@H](Cc1ccc(O)cc1)C(=O)O [compound 126] (H-PHDLEFKPGQGMY-OH; N-terminus and C-terminus assumed) | – | – | – | <90 | <90
8 | CSCC[C@H](NC(=O)[C@@H]1CCCN1C(=O)[C@H](CO)NC(=O)CNC(=O)[C@@H]1CCCN1C(=O)CNC(=O)[C@H](Cc1ccccc1)NC(=O)[C@H](CCC(N)=O)NC(=O)[C@@H](NC(=O)[C@H](Cc1c[nH]c2ccccc12)NC(=O)[C@H](Cc1c[nH]cn1)NC(=O)[C@@H](N)Cc1c[nH]c2ccccc12)C(C)C)C(=O)N[C@@H](Cc1ccc(O)cc1)C(=O)O [compound 111] (H-WHWVQFGPGSPMY-OH; N-terminus and C-terminus assumed) | <90 | – | <90 | <90 | 96.65
9 | CC[C@H](C)[C@H](NC(=O)[C@H](CCCCN)NC(=O)[C@@H](N)Cc1c[nH]c2ccccc12)C(=O)N[C@@H](CC(C)C)C(=O)N[C@H](C(=O)N[C@H](C(=O)N[C@@H](CCCCN)C(=O)N1CCC[C@H]1C(=O)NCC(=O)N[C@@H](CCC(N)=O)C(=O)N1CCC[C@H]1C(=O)N[C@@H](CCSC)C(=O)N[C@@H](Cc1ccc(O)cc1)C(=O)O)[C@@H](C)CC)[C@@H](C)O [compound 155] (H-WKILTIKPGQPMY-OH; N-terminus and C-terminus assumed) | – | – | – | <90 | <90
10 | CC[C@H](C)[C@H](NC(=O)[C@H](CC(=O)O)NC(=O)[C@H](CCCNC(=N)N)NC(=O)[C@@H](N)Cc1c[nH]c2ccccc12)C(=O)N[C@@H](CCCNC(=N)N)C(=O)N[C@@H](CC(C)C)C(=O)N[C@@H](CCCCN)C(=O)N[C@@H](CCCCN)C(=O)NCC(=O)N[C@@H](CCC(N)=O)C(=O)N1CCC[C@H]1C(=O)N[C@@H](CCSC)C(=O)N[C@@H](Cc1ccc(O)cc1)C(=O)O [compound 79] (H-WRDIRLKKGQPMY-OH; N-terminus and C-terminus assumed) | <90 | – | <90 | 100 | 100
11 | CSCC[C@H](NC(=O)[C@@H]1CCCN1C(=O)[C@H](CCC(=O)O)NC(=O)CNC(=O)[C@@H]1CCCN1C(=O)[C@H](CCCCN)NC(=O)[C@H](CC(C)C)NC(=O)[C@H](CC(N)=O)NC(=O)[C@H](CC(C)C)NC(=O)[C@H](Cc1c[nH]c2ccccc12)NC(=O)[C@H](Cc1c[nH]cn1)NC(=O)[C@@H]1CCCN1)C(=O)N[C@@H](Cc1ccc(O)cc1)C(=O)O [compound 158] (H-PHWLNLKPGEPMY-OH; N-terminus and C-terminus assumed) | – | – | – | <90 | <90
12 | CC[C@H](C)[C@H](NC(=O)[C@H](Cc1c[nH]c2ccccc12)NC(=O)[C@H](Cc1c[nH]cn1)NC(=O)[C@@H](N)CCCCN)C(=O)N[C@H](C(=O)N[C@@H](Cc1ccccc1)C(=O)N[C@@H](CCCCN)C(=O)N1CCC[C@H]1C(=O)NCC(=O)N[C@@H](CCC(N)=O)C(=O)N1CCC[C@H]1C(=O)N[C@@H](CCSC)C(=O)N[C@@H](Cc1ccc(O)cc1)C(=O)O)[C@@H](C)O [compound 11] (H-KHWITFKPGQPMY-OH; N-terminus and C-terminus assumed) | <90 | – | <90 | 100 | 100
13 | CSCC[C@H](NC(=O)[C@@H]1CCCN1C(=O)[C@H](CCC(=O)O)NC(=O)CNC(=O)[C@@H]1CCCN1C(=O)[C@H](CCCCN)NC(=O)[C@H](Cc1ccccc1)NC(=O)[C@H](CCC(N)=O)NC(=O)[C@H](CC(C)C)NC(=O)[C@@H](NC(=O)[C@H](Cc1c[nH]cn1)NC(=O)[C@@H](N)CCCCN)C(C)C)C(=O)N[C@@H](Cc1ccc(O)cc1)C(=O)O [compound 38] (H-KHVLQFKPGEPMY-OH; N-terminus and C-terminus assumed) | – | – | – | <90 | <90
14 | CC[C@H](C)[C@H](NC(=O)[C@H](Cc1c[nH]c2ccccc12)NC(=O)[C@H](Cc1c[nH]cn1)NC(=O)[C@@H]1CCCN1)C(=O)N[C@@H](CO)C(=O)N[C@@H](CC(C)C)C(=O)N[C@@H](CCCCN)C(=O)N[C@@H](CCCCN)C(=O)NCC(=O)N[C@@H](CCC(N)=O)C(=O)N1CCC[C@H]1C(=O)N[C@@H](CCSC)C(=O)N[C@@H](Cc1ccc(O)cc1)C(=O)O [compound 66] (H-PHWISLKKGQPMY-OH; N-terminus and C-terminus assumed) | <90 | <90 | 96.17 | 100 | 100
15 | CSCC[C@H](NC(=O)CNC(=O)[C@H](CO)NC(=O)CNC(=O)[C@@H]1CCCN1C(=O)[C@H](CCCCN)NC(=O)[C@H](Cc1ccccc1)NC(=O)[C@H](CCC(N)=O)NC(=O)[C@H](CC(C)C)NC(=O)[C@H](Cc1c[nH]c2ccccc12)NC(=O)[C@H](Cc1c[nH]cn1)NC(=O)[C@@H](N)CCCCN)C(=O)N[C@@H](Cc1ccc(O)cc1)C(=O)O [compound 64] (H-KHWLQFKPGSGMY-OH; N-terminus and C-terminus assumed) | <90 | <90 | 98.09 | 100 | 100
